Assay results from patent US11141410B2 (MERCK SHARP & DOHME CORP., priority 2015, dated 2021).
Like-named read-outs stand apart in the source and are kept apart here.

Experiments:
[1] = tested on: MRSA COL (MB5393); experiment: TarO Inhibitor/β-Lactam Synergy Assay (growth, OD600); format: cell-based; conditions: Staphylococcus aureus, read-out: MITC95 TarO inhibitor alone, Bacteria: SA_MB5393
[2] = tested on: MRSA COL (MB5393); experiment: as above; format: cell-based, Staphylococcus aureus; conditions: for MITC95 TarO inhibitor + 4 μg/mL IPM; Bacteria: SA_MB5393: in combination with 4 μg/mL imipenem (IPM); for MITC95 TarO inhibitor + 8 μg/mL DCX; Bacteria: SA_MB5393: in combination with 8 μg/mL dicloxacillin (DCX)
Procedure: The TarO inhibitor/β-lactam synergy assay was performed to measure the re-sensitization of methicillin-resistant Staphylococci bacteria (MB5393: MRSA COL) to β-lactam antibiotics by TarO inhibitors. MRSA COL is a hospital-acquired penicillinase-negative clinically isolated strain commonly used in Staphylococcus aureus studies and is fully resistant to the antimicrobial bioactivity of β-lactam antibiotics, including but not limited to imipenem and dicloxacillin. […] MRSA COL is fully refractory to β-lactam antibiotic effect at the current clinical breakpoint concentrations and as such MRSA COL is fully viable at these concentrations.
The β-lactam antibiotic concentration was fixed at the clinical breakpoint (imipenem 4 μg/ml or dicloxacillin 8 μg/ml) and the TarO inhibitors were titrated by 2 fold starting from the highest concentration of 200 μM with final DMSO concentration of 2% in the assay. 5×10^5 colony forming unit of MRSA COL in cation-adjusted Mueller Hinton broth (CAMHB) was then mixed and the assay plate was incubated for 20 hours at 37° C. without shaking. After 20 hours, the optical density at 600 nm (OD600) was read for all wells to determine relative growth of MRSA COL.

[3] = TarO inhibitor alone, >200 μM = 95% growth inhibition not achieved, 20 hours at 37° C.

Structure (SMILES) | IC95 [1, 3] [µM] | MITC95 TarO inhibitor + 4 μg/mL IPM; Bacteria: SA_MB5393 [2] [µM] | MITC95 TarO inhibitor + 8 μg/mL DCX; Bacteria: SA_MB5393 [2] [µM] | IC95 ([1]; 20 h) [µM]
Cc1nc(C)c(CNC(=O)N2C(=O)O[C@H](c3cc(F)cc(C(F)(F)F)c3)[C@@H]2C)s1 [Example 43, (4S,5R)-N-[(2,4-dimethyl-1,3-thiazol-5-yl)methyl]-5-[3-fluoro-5-(trifluoromethyl)phenyl]-4-methyl-2-oxo-1,3-oxazolidine-3-carboxamide] | > 200 | 5.21 | 42 | 
C[C@H]1[C@@H](c2cc(F)cc(C(F)(F)F)c2)OC(=O)N1C(=O)NCc1ccccc1S(C)(=O)=O [Example 44, (4S,5R)-5-[3-fluoro-5-(trifluoromethyl)phenyl]-4-methyl-N-[2-(methylsulfonyl)benzyl]-2-oxo-1,3-oxazolidine-3-carboxamide] | > 200 | 12.50 | 25 | 
C[C@H]1[C@@H](c2cc(C(F)(F)F)cc(C(F)(F)F)c2)OC(=O)N1C(=O)NCc1cccnc1N1CCOCC1 [Example 45, (4S,5R)-5-[3,5-bis(trifluoromethyl)phenyl]-4-methyl-N-[(2-morpholin-4-ylpyridin-3-yl)methyl]-2-oxo-1,3-oxazolidine-3-carboxamide] | > 200 | 4.69 | 25 | 
C[C@H]1[C@@H](c2cc(F)cc(C(F)(F)F)c2)OC(=O)N1C(=O)N(O)Cc1cccc2ccccc12 [Example 46, (4S,5R)-5-[3-fluoro-5-(trifluoromethyl)phenyl]-N-hydroxy-4-methyl-N-(naphthalen-1-ylmethyl)-2-oxo-1,3-oxazolidine-3-carboxamide] | > 200 | 6.25 | 50 | 
C[C@H]1[C@@H](c2cc(F)cc(C(F)(F)F)c2)OC(=O)N1C(=O)NCc1cnc2sccn12 [Example 47, (4S,5R)-5-[3-fluoro-5-(trifluoromethyl)phenyl]-N-(imidazo[2,1-b][1,3]thiazol-5-ylmethyl)-4-methyl-2-oxo-1,3-oxazolidine-3-carboxamide] | > 200 | 62 | 50 | 
C[C@H]1[C@@H](c2cc(F)cc(C(F)(F)F)c2)OC(=O)N1C(=O)NCc1cncc2ccccc12 [Example 48, (4S,5R)-5-[3-fluoro-5-(trifluoromethyl)phenyl]-N-(isoquinolin-4-ylmethyl)-4-methyl-2-oxo-1,3-oxazolidine-3-carboxamide] | > 200 | 0.13 | 0.39 | 
C[C@H]1[C@@H](c2cc(C(F)(F)F)cc(C(F)(F)F)c2)OC(=O)N1C(=O)NCc1cccc2c1OCCO2 [Example 49, (4S,5R)-5-[3,5-bis(trifluoromethyl)phenyl]-N-(2,3-dihydro-1,4-benzodioxin-5-ylmethyl)-4-methyl-2-oxo-1,3-oxazolidine-3-carboxamide] | > 200 | 0.02 | 0.13 | 
O=C(NCc1cncc2ccccc12)N1C(=O)O[C@H](c2cc(C(F)(F)F)cc(C(F)(F)F)c2)[C@@H]1CO [Example 50, (4S,5R)-5-(3,5-bis(trifluoromethyl)phenyl)-4-(hydroxymethyl)-N-(isoquinolin-4-ylmethyl)-2-oxooxazolidine-3-carboxamide] |  | 0.22 | 0.64 | > 200
COc1cc([C@H]2OC(=O)N(C(=O)NCc3cncc4cccnc34)[C@H]2CO)cc(C(F)(F)F)c1 [Example 51, (4S,5R)-4-(hydroxymethyl)-5-[3-methoxy-5-(trifluoromethyl)phenyl]-N-(1,6-naphthyridin-8-yl-methyl)-2-oxo-1,3-oxazolidine-3-carboxamide] | > 200 | 1.56 | 8.33 | 
COc1cccc(CNC(=O)N2C(=O)O[C@H](c3cc(C(F)(F)F)cc(C(F)(F)F)c3)[C@@H]2CO)c1OC [Example 52, (4S,5R)-5-[3,5-bis(trifluoromethyl)phenyl]-N-(2,3-dimethoxybenzyl)-4-(hydroxymethyl)-2-oxo-1,3-oxazolidine-3-carboxamide] | > 200 | 0.03 | 0.06 | 
O=C(NCc1cncc2cccnc12)N1C(=O)O[C@H](c2cc(C(F)(F)F)cc(C(F)(F)F)c2)[C@@H]1CO [Example 53, (4S,5R)-5-[3,5-bis(trifluoromethyl)phenyl]-4-(hydroxymethyl)-N-(1,6-naph-thyridin-8-yl-methyl)-2-oxo-1,3-oxazolidine-3-carboxamide] | > 200 | 0.39 | 1.37 | 
O=C(NCc1cccc2cncnc12)N1C(=O)O[C@H](c2cc(C(F)(F)F)cc(C(F)(F)F)c2)[C@@H]1CO [Example 54, (4S,5R)-5-[3,5-bis(trifluoromethyl)phenyl]-4-(hydroxymethyl)-2-oxo-N-(quinazolin-8-yl-methyl)-1,3-oxazolidine-3-carboxamide] | > 200 | 0.20 | 0.65 | 
COc1cc([C@H]2OC(=O)N(C(=O)NCc3cncc4ccccc34)[C@H]2CO)cc(C(F)(F)F)c1 [Example 55, (4S,5R)-4-(hydroxymethyl)-N-(isoquinolin-4-ylmethyl)-5-[3-methoxy-5-(trifluoromethyl)phenyl]-2-oxo-1,3-oxazolidine-3-carboxamide] | > 200 | 0.30 | 1.18 | 
O=C(NCc1cncc2ccccc12)N1C(=O)O[C@H](c2cc(F)cc(C(F)(F)F)c2)[C@@H]1CO [Example 57, (4S,5R)-5-[3-fluoro-5-(trifluoromethyl)phenyl]-4-(hydroxymethyl)-N-(isoquinolin-4-ylmethyl)-2-oxo-1,3-oxazolidine-3-carboxamide] | > 200 | 0.33 | 1.56 | 
COc1cc([C@H]2OC(=O)N(C(=O)NCc3cccc4nccnc34)[C@H]2CO)cc(C(F)(F)F)c1 [Example 58, (4S,5R)-4-(hydroxymethyl)-5-[3-methoxy-5-(trifluoromethyl)phenyl]-2-oxo-N-(quinoxalin-5-ylmethyl)-1,3-oxazolidine-3-carboxamide] | > 200 | 1.56 | 6.25 | 
COc1cc([C@H]2OC(=O)N(C(=O)NCc3cccc4cncnc34)[C@H]2CO)cc(C(F)(F)F)c1 [Example 59, (4S,5R)-4-(hydroxymethyl)-5-[3-methoxy-5-(trifluoromethyl)phenyl]-2-oxo-N-(quinazolin-8-ylmethyl)-1,3-oxazolidine-3-carboxamide] | > 200 | 1.95 | 10.42 | 
